Data reported in US9365597B2, “Mitochondria-targeted inhibitors of cytochrome c peroxidase for protection from apoptosis” (Brock University, priority 2011, dated 2016).

Experiments:
SH-SY5Y cells = experiment: Oxygen-glucose deprivation (OGD) of SH-SY5Y cells, viability by WST-1 assay; format: cell-based, human; conditions: for fold change in viability compared to control cells: 24 hours of recovery after 8 hour OGD, mean±SEM
Method: SH-SY5Y cells were harvested from 100 mm diameter culture plates once 70-80% confluence was reached, and were then seeded on 96-well plates at a density of 3.0×10^4 cells per well in normal growth media. The cells were then incubated overnight (approximately 16 hours) under normal growth conditions to allow for attachment to plates. During this time, DMEM (supplemented with 25 mM HEPES, 4 mM L-glutamine, and 584 mg/L […]) with no glucose or serum to be used for OGD was incubated on a culture plate in the 3% oxygen, 5% carbon dioxide, 37° C. incubator to reduce the oxygen levels within the media. In the following morning, this plate of media was placed inside of a custom-built anoxic chamber that was continuously pumped with 95% nitrogen-5% carbon dioxide gas mixture from Praxair Canada (St. Catharines, ON, Canada) to further reduce/eliminate the amount of oxygen present in the media. 0.2% oxygen level within the chamber was reached within approximately 10 minutes, and the plate of media was incubated for 30 minutes under these conditions. After this period, the growth media on the 96-well plates of SH-SY5Y cells was removed, and carefully replaced with the de-oxygenated DMEM containing no glucose or serum. The plates of cells were then incubated in the anoxia chamber at 0.2% oxygen for 8 hours, continuously pumped with the 95% nitrogen-5% carbon dioxide gas mixture. An oxygen sensor was kept inside of the chamber, and the 0.2% oxygen level was monitored and maintained by a Roxy-1 universal regulator/controller (Sable Systems Int., Las Vegas, Nev., USA). Throughout the duration of the media de-oxygenation and OGD, the anoxic chamber was kept inside of a 37° C. […]
After the 8 hour period of OGD, the glucose/serum-free DMEM was carefully removed from the wells, and replaced with normal growth media containing TPP-IOA. The cells were incubated at their normal growth conditions, and viability was assessed after 24 and 48 hours of recovery with the use of the WST-1 cell proliferation assay.
For measurements, premixed WST-1 cell proliferation reagent was added to the wells of cells (ratio of 1:10 with growth media) cultured on 96-well flat bottomed plates. […] The plate was then shaken thoroughly for 1 minute on a plate shaker, and then absorbance at 450 nm, with a reference wavelength of 650 nm, was measured using a microplate reader (BioTek, Winooski, Vt., USA).
For data analysis, the background control and reference wavelength absorbance readings were subtracted from the 450 nm reading for each sample. The average absorbance reading for the 0 μM TPP-IOA treatment was then set equal to 1, and all sample readings were divided by the mean absorbance of the 0 μM TPP-IOA treatment to obtain a measure of fold change in viability compared to the control.

[1] = tested on: mouse lung endothelial cells; experiment: Rotenone-induced apoptosis in mouse lung endothelial cells (PS externalization); format: cell-based; conditions: 2 μM rotenone, TPP-IOA 2.5, 5 μM, 48 h
Method: Mouse embryonic cells (courtesy of Dr X. Wang, University of Texas, Dallas) were cultured in Dulbecco's Modified Eagle Medium (DMEM) supplemented with 15% fetal bovine serum (FBS), 25 mM Hepes, 50 mg per liter uridine, 110 mg per liter pyruvate, 2 mM glutamine, 1× nonessential amino acids, 50 μM β-mercaptoethanol, 0.5×10^6 Upper liter mouse leukaemia inhibitory factor, 100 Upper liter penicillin, and 100 mg per liter streptomycin in a humidified atmosphere of 5% CO2, 95% air at 37° C. Mouse lung endothelial cells were obtained as previously described^29. Briefly, lungs were flushed with Hank's balanced salt solution (HBSS) containing 10 U ml^−1 heparin, then homogenized and digested in type I collagenase using a gentle MACs dissociator (Miltenyi). […] At approximately passage 2, cells were incubated with fluorescently labelled diacetylated low-density lipoprotein (LDL) followed by fluorescence-activated cell sorting (FACS) for further purification. The enriched PECAM and diacetylated LDL population was sub-cultured on a collagen/gelatin matrix in 2% O2, 5% CO2, 93% nitrogen in a Coy Hypoxic Glove Box/Chamber in Opti-MEM (Gibco), 10% FBS, 2 mM glutamine, 0.2% retinal-derived growth factor (Vec Technologies), 10 U ml^−1 heparin, 0.1 mM non-essential amino acid supplement (Gibco) and 55 μM β-mercaptoethanol (Counted as passage 3). […]

[2] = Compartmentalization of TPP-IOA in mouse embryonic cells and subcellular fractions (HPLC, ESI-MS); format: in vitro ADME
Method: Mitochondrial fractions were isolated by differential centrifugation. Briefly, cells were suspended in mitochondria isolation buffer (pH 7.4; MIB) containing mannitol (210 mM), sucrose (70 mM), HEPES (10 mM), EDTA (1 mM) and protease inhibitor cocktail. Cells were lysed by Dounce homogenization. Unbroken cells, nuclei and debris were removed by 5 min centrifugation at 600×g at 4° C. Mitochondria, obtained by centrifugation at 10,000×g (10 min), were washed once with MIB.
Mouse embryonic cells (2×10^6) were seeded in 100 mm cell culture dishes and let attached overnight. Thereafter, the cells were incubated with TPP-IOA (10 μM) in PBS at 37° C. for 30 min, washed with PBS (2×5 mL), and collected by trypsinization. Mitochondria were isolated as described above. In mitochondria, TPP-IOA was analyzed by HPLC after precipitation of proteins with CH3CN (final concentration, 70%; incubation time, 15 min at 4° C.; centrifugation, 5 min at 10,000×g). TPP-IOA from cytosolic fractions was extracted by following the protocol of Folch et al.^37 and then re-dissolved in a minimal volume of methanol. […] Detection of TPP-IOA was performed with a SPD-M10A photodiode array detector (Shimadzu, Kyoto, Japan) following the specific UV spectrum of the triphenylphosphonium function (λmax=224, 264 and 274 nm; FIG. 4A, Inset). TPP-IOA was eluted as single peak with retention time of 4 min.

CCCCCCC(C/C=C\CCCCCCCC(=O)OCCC[P+](c1ccccc1)(c1ccccc1)c1ccccc1)n1ccnc1.[Br-] (stereo not shown) [TPP-IOA]
fold change in viability compared to control cells (SH-SY5Y cells; 2.5 μM, p=0.017): 1.192±0.058 fold
fold change in viability compared to control cells (SH-SY5Y cells; 5 μM, p=0.0094): 1.356±0.074 fold
fold change in viability compared to control cells (SH-SY5Y cells; 10 μM, non-significant p=0.0955): 1.179±0.038 fold
viability after 48 hours of incubation (SH-SY5Y cells; 48 hours of recovery after 8 hour OGD): no significant improvements in viability
inhibition of rotenone-induced apoptosis [1]: effectively inhibited apoptosis
concentration of TPP-IOA in mitochondria ([2]; assuming mitochondria are ~15-25% of cell volume): ~5000 µM
subcellular distribution of TPP-IOA ([2]; mouse embryonic cells, 10 μM, 30 min): most of the TPP-IOA was present in mitochondria
